Like-named read-outs stand apart in the source and are kept apart here.
Legend:
[1] = molecular target: Myeloid Cell Leukemia 1 (Mcl-1) (Homo sapiens (Human), UniProt Q07820); assay: Terbium labeled Mcl-1 HTRF binding assay, displacement of Cy5-labeled BIM BH3 peptide; settings: 25 pM Tb-Mcl-1, 8 nM Cy5 Bim peptide, 60 minutes at room temperature, read-out: Tb-MCL1 Ki
Protocol: Terbium labeled Myeloid Cell Leukemia 1 (Mcl-1) homogeneous time-resolved fluorescence (HTRF) binding assay utilizing the BIM BH3 peptide (H2N—(C/Cy5Mal) WIAQELRRIGDEFN-OH) as the binding partner for Mcl-1.
This assay evaluated inhibition of the BH3 domain: Mcl-1 interaction by measuring the displacement of Cy5-labeled BIM BH3 peptide (H2N—(C/Cy5Mal) WIAQELRRIGDEFN-OH) in the HTRF assay format.
The following assay and stock buffers were prepared for use in the assay: (a) Stock buffer: 10 mM Tris-HCl, pH=7.5+150 mM NaCl, filtered, sterilized, and stored at 4° C.; and (b) 1× assay buffer, where the following ingredients were added fresh to stock buffer: 2 mM dithiothreitol (DTT), 0.0025% Tween-20, 0.1 mg/mL bovine serum albumin (BSA). The 1×Tb-Mcl-1+Cy5 Bim peptide solution was prepared by diluting the protein stock solution using the 1× assay buffer (b) to 25 pM Tb-Mcl-1 and 8 nM Cy5 Bim peptide.
Using the Acoustic ECHO, 100 nL of 100× test compound(s) were dispensed into individual wells of a white 384-well Perkin Elmer Proxiplate, for a final compound concentration of 1× and final DMSO concentration of 1%. Inhibitor control and neutral control (NC, 100 nL of 100% DMSO) were stamped into columns 23 and 24 of assay plate, respectively. Into each well of the plate was then dispensed 10 μL of the 1×Tb-Mcl-1+Cy5 Bim peptide solution. The plate was centrifuged with a cover plate at 1000 rpm for 1 minute, then incubated for 60 minutes at room temperature with plates covered.
The TR-FRET signal was read on an BMG PHERAStar FSX MicroPlate Reader at room temperature using the HTRF optic module (HTRF: excitation: 337 nm, light source: laser, emission A: 665 nm, emission B: 620 nm, integration start: 60 μs, integration time: 400 μs).
The BMG PHERAStar FSX MicroPlate Reader was used to measure fluorescence intensity at two emission wavelengths—665 nm and 620 nm—and report relative fluorescence units (RFU) for both emissions, as well as a ratio of the emissions (665 nm/620 nm)*10,000. The RFU values were normalized to percent inhibition as follows:
% inhibition(((NC−IC)−(compound−IC))/(NC−IC))*100
where IC (inhibitor control, low signal)=mean signal of 1× Tb-MCl-1+Cy5 Bim peptide+inhibitor control or 100% inhibition of Mcl-1; NC (neutral control, high signal)=mean signal 1×Tb-MCl-1+Cy5 Bim peptide with DMSO only or 0% inhibition
An 11-point dose response curve was generated to determine IC50 values (using GenData) based on the following equation:
where Y=% inhibition in the presence of X inhibitor concentration; Top=100% inhibition derived from the IC (mean signal of Mcl-1+inhibitor control); Bottom=0% inhibition derived from the NC (mean signal of Mcl-1+DMSO); Hillslope=Hill coefficient; and IC50=concentration of compound with 50% inhibition in relation to top/neutral control (NC).
Representative compounds of the present invention were tested according to the procedure as described above, with results as listed in the Table below (n.d. means not determined).

[2] = tested on: MOLP-8 human multiple myeloma cell line; assay: Caspase-Glo 3/7 apoptosis induction assay in MOLP-8 cells; assay type: cell-based; settings: caspase-3/7 activity, 2 hours at 37° C., averaged over all runs on all batches, read-out: MOLP8 AC50
Description: MCL-1 is a regulator of apoptosis and is highly over-expressed in tumor cells that escape cell death. The assay evaluates the cellular potency of small-molecule compounds targeting regulators of the apoptosis pathway, primarily MCL-1, Bfl-1, Bcl-2, and other proteins of the Bcl-2 family. Protein-protein inhibitors disrupting the interaction of anti-apoptotic regulators with BH3-domain proteins initiate apoptosis.
The Caspase-Glo® 3/7 Assay is a luminescent assay that measures caspase-3 and -7 activities in purified enzyme preparations or cultures of adherent or suspension cells. The assay provides a proluminescent caspase-3/7 substrate, which contains the tetrapeptide sequence DEVD. This substrate is cleaved to release aminoluciferin, a substrate of luciferase used in the production of light. Addition of the single Caspase-Glo® 3/7 Reagent in an “add-mix-measure” format results in cell lysis, followed by caspase cleavage of the substrate and generation of a “glow-type” luminescent signal.
This assay uses the MOLP-8 human multiple myeloma cell line, which is sensitive to MCL-1 inhibition.
Cell cultures were maintained between 0.2 and 2.0×10^6 cells/mL. The cells were harvested by collection in 50 mL conical tubes. The cells were then pelleted at 500 g for 5 mins before removing supernatant and resuspension in fresh pre-warmed culture medium. The cells were counted and diluted as needed.
The assay reagent was prepared by transferring the buffer solution to the substrate vial and mixing. The solution may be stored for up to 1 week at 4° C. with negligible loss of signal.
Compounds were delivered in assay-ready plates (Proxiplate) and stored at −20° C.
Assays always include 1 reference compound plate containing reference compounds. The plates were spotted with 40 nL of compounds (0.5% DMSO final in cells; serial dilution; 30 μM highest conc. 1/3 dilution, 10 doses, duplicates). The compounds were used at room temperature and 4 μL of pre-warmed media was added to all wells except column 2 and 23. The negative control was prepared by adding 1% DMSO in media. The positive control was prepared by adding the appropriate positive control compound in final concentration of 60 μM in media. The plate was prepared by adding 4 μL negative control to column 23, 4 μL positive control to column 2, and 4 μL cell suspension to all wells in the plate. The plate with cells was then incubated at 37° C. for 2 hours. The assay signal reagent is the Caspase-Glo solution described above, and 8 μL was added to all wells. The plates were then sealed and measured after 30 minutes.
The activity of a test compound was calculated as percent change in apoptosis induction as follows: […]

Sequence of Myeloid Cell Leukemia 1 (Mcl-1) (Q07820 whole entry): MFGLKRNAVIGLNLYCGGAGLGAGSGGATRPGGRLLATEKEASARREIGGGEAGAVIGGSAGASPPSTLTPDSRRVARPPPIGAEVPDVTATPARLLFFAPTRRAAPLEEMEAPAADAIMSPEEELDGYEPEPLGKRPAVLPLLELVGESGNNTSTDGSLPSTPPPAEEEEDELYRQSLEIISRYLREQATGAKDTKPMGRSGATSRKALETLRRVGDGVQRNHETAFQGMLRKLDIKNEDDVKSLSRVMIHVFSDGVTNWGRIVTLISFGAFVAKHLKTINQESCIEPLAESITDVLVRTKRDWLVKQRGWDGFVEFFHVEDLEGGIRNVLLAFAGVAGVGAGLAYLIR

Row | SMILES | Ki [1] [nM] | AC50 [2] [nM] | AC50 ([2]; Homo sapiens, MOLP-8, 2 h) [nM]
1 | C[C@@H]1[C@@H](C)C/C=C(\F)C(O)(CC(=O)N(C)C)[C@@H]2OCC[C@H]2CN2C[C@@]3(CCCc4cc(Cl)ccc43)COc3ccc(cc32)C(=O)NS1(=O)=O (single isomer, unassigned) [Compound 22] | 0.981 | 4830 | 
2 | CO[C@@H]1/C(F)=C/C[C@H](C)[C@@H](C)S(=O)(=O)NC(=O)c2ccc3c(c2)N(C[C@@H]2CCO[C@H]21)C[C@@]1(CCCc2cc(Cl)ccc21)CO3 [Compound 2] | 1.13 |  | 1120
3 | CO[C@@]1(CN2CCN3CCOC[C@@H]3C2)/C(F)=C/C[C@H](C)[C@@H](C)S(=O)(=O)NC(=O)c2ccc3c(c2)N(C[C@@H]2CCO[C@H]21)C[C@@]1(CCCc2cc(Cl)ccc21)CO3 [Compound 6] |  |  | 69
4 | COc1nn(C)cc1C(=O)NS1(=O)=NC(=O)c2ccc3c(c2)N(C[C@@H]2CCO[C@H]2C(OC)/C=C/C[C@H](C)C1)C[C@@]1(CCCc2cc(Cl)ccc21)CO3 (single isomer, unassigned) [Compound 9] | 0.05 | 119 | 
5 | COc1nn(C)cc1C(=O)NS1(=O)=NC(=O)c2ccc3c(c2)N(C[C@@H]2CCO[C@H]2C(CN2CCN4CCOC[C@@H]4C2)(OC)/C(F)=C/C[C@H](C)C1)C[C@@]1(CCCc2cc(Cl)ccc21)CO3 (single isomer, unassigned) [Compound 28] | 0.011 | 23.2 | 
6 | COc1nn(C)cc1C(=O)NS1(=O)=NC(=O)c2ccc3c(c2)N(C[C@@H]2CCO[C@H]2C(OC)/C(F)=C/C[C@H](C)C1)C[C@@]1(CCCc2cc(Cl)ccc21)CO3 (single isomer, unassigned) [Compound 24] | 0.011 | 44 | 
7 | C[C@@H]1[C@@H](C)C/C=C/C(OCCN2CCOCC2)[C@@H]2OCC[C@H]2CN2C[C@@]3(CCCc4cc(Cl)ccc43)COc3ccc(cc32)C(=O)NS1(=O)=O (single isomer, unassigned) [Compound 20] | 0.223 |  | 616
8 | COc1nn(C)cc1C(=O)NS1(=O)=NC(=O)c2ccc3c(c2)N(C[C@@H]2CCO[C@H]2C(CN2CCN4CCOC[C@@H]4C2)(OC)/C(F)=C/C[C@H](C)C1)C[C@@]1(CCCc2cc(Cl)ccc21)CO3 (single isomer, unassigned) [Compound 30] | 0.014 | 28.6 | 
9 | C[C@@H]1[C@@H](C)C/C=C(\F)C(OCCN2CCOCC2)[C@@H]2OCC[C@H]2CN2C[C@@]3(CCCc4cc(Cl)ccc43)COc3ccc(cc32)C(=O)NS1(=O)=O (single isomer, unassigned) [Compound 5] | 0.445 | 1100 | 
10 | CO[C@]1(CN2CCN3CCOC[C@@H]3C2)/C(F)=C/C[C@H](C)[C@@H](C)S(=O)(=O)NC(=O)c2ccc3c(c2)N(C[C@@H]2CCO[C@H]21)C[C@@]1(CCCc2cc(Cl)ccc21)CO3 [Compound 7] |  |  | 88
11 | COc1nn(C)cc1C(=O)NS1(=O)=NC(=O)c2ccc3c(c2)N(C[C@@H]2CCO[C@H]2C(OC)/C=C/C[C@H](C)C1)C[C@@]1(CCCc2cc(Cl)ccc21)CO3 (single isomer, unassigned) [Compound 10] | 0.401 | 453 | 
12 | COc1nn(C)cc1C(=O)NS1(=O)=NC(=O)c2ccc3c(c2)N(C[C@@H]2CCO[C@H]2C(CN2CCN4CCOC[C@@H]4C2)(OC)/C(F)=C/C[C@H](C)C1)C[C@@]1(CCCc2cc(Cl)ccc21)CO3 (single isomer, unassigned) [Compound 27] | 0.048 | 424 | 
13 | COC1/C(F)=C/C[C@H](C)[C@@H](C)S(=O)(=O)NC(=O)c2cnc3c(n2)N(C[C@@H]2CCO[C@@H]12)C[C@@]1(CCCc2cc(Cl)ccc21)CO3 (single isomer, unassigned) [Compound 12] | 5.23 | 1220 | 
14 | COCC1/C=C/C[C@H](C)[C@@H](C)S(=O)(=O)NC(=O)c2ccc3c(c2)N(C[C@@H]2CCO[C@@H]12)C[C@@]1(CCCc2cc(Cl)ccc21)CO3 (stereo partly drawn) [Compound 17] | 0.678 | 2820 | 
15 | COc1nn(C)cc1C(=O)NS1(=O)=NC(=O)c2ccc3c(c2)N(C[C@@H]2CCO[C@H]2C(CN2CCN4CCOC[C@@H]4C2)(OC)/C(F)=C/C[C@H](C)C1)C[C@@]1(CCCc2cc(Cl)ccc21)CO3 (single isomer, unassigned) [Compound 29] | 0.17 | 702 | 
16 | COCC1/C=C/C[C@H](C)[C@@H](C)S(=O)(=O)NC(=O)c2ccc3c(c2)N(C[C@@H]2CCO[C@@H]12)C[C@@]1(CCCc2cc(Cl)ccc21)CO3 (stereo partly drawn) [Compound 16] | 0.673 |  | 1820
17 | C[C@@H]1[C@@H](C)C/C=C(\F)C(OCCN2CCOCC2)[C@@H]2OCC[C@H]2CN2C[C@@]3(CCCc4cc(Cl)ccc43)COc3ccc(cc32)C(=O)NS1(=O)=O (single isomer, unassigned) [Compound 4] | 0.192 | 314 | 
18 | COc1nn(C)cc1C(=O)NS1(=O)=NC(=O)c2ccc3c(c2)N(C[C@@H]2CCO[C@H]2C(OC)/C(F)=C/C[C@H](C)C1)C[C@@]1(CCCc2cc(Cl)ccc21)CO3 (single isomer, unassigned) [Compound 25] | 0.025 | 486 | 
19 | C[C@@H]1[C@@H](C)C/C=C/C(CO)[C@@H]2OCC[C@H]2CN2C[C@@]3(CCCc4cc(Cl)ccc43)COc3ccc(cc32)C(=O)NS1(=O)=O (single isomer, unassigned) [Compound 14] | 0.521 | 1250 | 
20 | CO[C@H]1/C(F)=C/C[C@H](C)[C@@H](C)S(=O)(=O)NC(=O)c2ccc3c(c2)N(C[C@@H]2CCO[C@H]21)C[C@@]1(CCCc2cc(Cl)ccc21)CO3 [Compound 1] | 0.218 |  | 191
21 | C[C@@H]1[C@@H](C)C/C=C(\F)C(O)(CC(=O)N(C)C)[C@@H]2OCC[C@H]2CN2C[C@@]3(CCCc4cc(Cl)ccc43)COc3ccc(cc32)C(=O)NS1(=O)=O (single isomer, unassigned) [Compound 21] | 0.182 | 436 | 
22 | COc1nn(C)cc1C(=O)NS1(=O)=NC(=O)c2ccc3c(c2)N(C[C@@H]2CCO[C@H]2C(OC)/C=C/C[C@H](C)C1)C[C@@]1(CCCc2cc(Cl)ccc21)CO3 (single isomer, unassigned) [Compound 8] | 0.0231 | 34 | 

Reference: patent US20240239812A1, “MACROCYCLIC 2-ALLYLTETRAHYDROFURANS AS INHIBITORS OF MCL-1” (JANSSEN PHARMACEUTICA NV, priority 2021, published 2024)
